Laboratory results from patent US20090221549A1, “ANTIHYPERTENSIVE THERAPY” (Gilead Colorado, Inc., priority 2006, published 2009).

What was measured:
[1] = system: patients with moderate hypertension; conditions: 10 to 100 mg/day, no other antihypertensive drugs; cited from earlier work
[2] = system: patients with resistant hypertension; test: 24-hour ambulatory blood pressure monitoring (ABPM) at week 10; assay type: in vivo, human
Protocol: (§1) In this randomized, double-blind, placebo-controlled, dose-titration study, patients were randomized 2:1 to receive escalating doses of darusentan or placebo once daily in the morning for 10 weeks after completing a 2-week placebo run-in period (FIG. 1). Darusentan was initiated at a dose of 10 mg/day and escalated every 2 weeks at doses of 50, 100 and 150 mg/day until reaching a maximum of 300 mg/day. […] Patients were withdrawn from the study if a subsequent dose reduction was required. After completion of the 10-week treatment period, patients were withdrawn from study medication over a maximum of 2 weeks. This study was approved by an Institutional Review Board/Independent Ethics Committee and conducted in accordance with the principles of Good Clinical Practices and the revised Declaration of Helsinki.
(§2) Co-primary efficacy endpoints were the changes from baseline through weeks 8 and 10 (i.e., doses of 150 and 300 mg) in trough sitting SBP. Blood pressure was measured at every study visit (baseline and weeks 2, 4, 6, 8 and 10) using standard sphygmomanometry. Secondary variables included 24-hour SBP as measured by ambulatory blood pressure monitoring (ABPM), percentage of patients who achieved SBP goal, trough sitting DBP, and urinary albumin to creatinine ratio. Ambulatory blood pressure monitoring was recorded once before randomization and repeated during the 24 hours immediately preceding the week 10 study visit. Urine samples for determination of albumin to creatinine ratio were collected at screening, baseline and week 10.
A nonlinear mixed effect model was used for the analysis of change in blood pressure, with comorbidity status as a covariate. This model used all observed blood pressure measurements with no imputation for missing values. Linear contrast statements were used to test the slope through a given time point to test the effect of the dose administered on that week. Estimates of treatment effect were obtained via least square means. […]

[3] = system: patients with resistant hypertension; test: Safety and tolerability assessments in the clinical study; assay type: in vivo, human; conditions: for Treatment-emergent adverse events, Patients, %: n = 76
Protocol: as §1
Physical examinations, vital sign measurements, clinical chemistry and hematologic laboratory tests, and electrocardiography were performed at the screening visit and periodically throughout the study. Blood samples were obtained at baseline and at weeks 4 and 10 during study drug treatment to monitor liver function. Additional blood samples were drawn from male patients at baseline and week 10 to assess follicle stimulating hormone, inhibin B, luteinizing hormone and testosterone levels. Male fertility was assessed by analysis of semen samples obtained within 2 weeks before baseline and within 2 weeks before week 10. Adverse events were monitored throughout the study.
(§3) A nonlinear mixed effect model was used for the analysis of change in blood pressure, with comorbidity status as a covariate. This model used all observed blood pressure measurements with no imputation for missing values. Linear contrast statements were used to test the slope through a given time point to test the effect of the dose administered on that week. Estimates of treatment effect were obtained via least square means. Response rates were compared with logistic regression models at each blood pressure measurement with comorbidity status as a covariate; missing values were imputed with last observation carried forward for these models. Safety summaries include all patients who received ≧1 dose of blinded study medication.

[4] = system: patients with resistant hypertension; test: Trough/peak sitting blood pressure by standard sphygmomanometry, randomized placebo-controlled dose-titration study; assay type: in vivo, human; conditions: for Percent of patients achieving SBP goal, Responders, n (%): n = 76
Protocol: In this randomized, double-blind, placebo-controlled, dose-titration study, 115 patients with resistant hypertension as defined by JNC 7 guidelines were randomized 2:1 to receive escalating doses of darusentan (10, 50, 100, 150 and 300 mg) or placebo once daily for 10 weeks. Darusentan dose was increased every 2 weeks.
Patients (35 to 85 years of age) with resistant hypertension as defined by the JNC 7 guidelines and who were treated with and adhered to full doses of JNC 7 recommended antihypertensives, including a diuretic and two or more antihypertensive medications from different drug classes, defined as (a) ACE inhibitors and angiotensin II receptor blockers, (b) beta-adrenergic receptor blockers, and (c) calcium channel blockers, were eligible to participate in the study. Patients also were required to have an estimated glomerular filtration rate (GFR) ≧30 mL/min/1.73 m^2 during the screening period. Women of childbearing potential were required to have a negative serum pregnancy test at the screening visit and a negative urine pregnancy test at baseline, and they must have agreed to use a reliable double-barrier method of contraception throughout the study and for at least 4 weeks after the last study visit. Patients with an average sitting SBP ≧180 mmHg, […], hemoglobin A1c >10%, hemoglobin concentration <10 g/dL, hematocrit <30%, serum thyroid stimulating hormone concentration >1.5× the upper limit of normal (ULN), or serum alanine aminotransferase (ALT) or aspartate aminotransferase (AST)>2×ULN during the screening period were excluded from the study. […] All patients provided written informed consent.
as §1, §2
as §3, with “medication. […]” for “medication.”

[5] = system: patients with resistant hypertension; test: Urinary albumin to creatinine ratio (renal function); assay type: in vivo, human; conditions: for Albumin to creatinine ratio, % Change from baseline, Mean: week 10
Protocol: as §2

COc1cc(OC)nc(O[C@H](C(=O)O)C(OC)(c2ccccc2)c2ccccc2)n1 [Darusentan, (+)-(S)-2-[(4,6-dimethoxy-2-pyrimidinyl)oxy]-3-methoxy-3,3-diphenylpropionic acid]
effect on SBP and DBP by comparison with placebo [1]: significantly reduce
placebo-adjusted reduction in mean 24-hour systolic ABP ([2]; 300 mg): 9.2±2.2 mmHg
decrease in day-time SBP (ABP) ([2]; placebo 2.2±2.4 mmHg): 10.9±1.4 mmHg
decrease in night-time SBP (ABP) ([2]; placebo 3.8±2.7 mmHg): 11.9±1.6 mmHg
patients with elevations in ALT or AST >2×ULN ([3]; 10-week treatment): no
Treatment-emergent adverse events, Patients, % ([3]; Arthralgia): (3) %
Treatment-emergent adverse events, Patients, % ([3]; Diarrhea): (1) %
Treatment-emergent adverse events, Patients, % ([3]; Dizziness): (7) %
Treatment-emergent adverse events, Patients, % ([3]; Gastroenteritis): (5) %
Treatment-emergent adverse events, Patients, % ([3]; Nasopharyngitis): (7) %
Treatment-emergent adverse events, Patients, % ([3]; Sinusitis): (8) %
Treatment-emergent adverse events, Patients, % ([3]; Upper respiratory tract infection): (5) %
patients with decrease in hematocrit reported as adverse event ([3]; all events mild): 2 patients
patients with decrease in hemoglobin reported as adverse event ([3]; all events mild): 2 patients
cases of severe peripheral edema ([3]; darusentan group): one case
serious adverse events considered related to study medication ([3]; darusentan group): None and no drug-related serious adverse events
improvements in trough sitting SBP and DBP, dose relation ([4]; 10 to 300 mg once daily, titrated every 2 weeks): dose dependent
Percent of patients achieving SBP goal, Responders, n (%) ([4]; Week 2 (10 mg)): 23 (30.3) n (%)
Percent of patients achieving SBP goal, Responders, n (%) ([4]; Week 4 (50 mg)): 36 (47.4) n (%)
Percent of patients achieving SBP goal, Responders, n (%) ([4]; Week 6 (100 mg)): 34 (44.7) n (%)
Percent of patients achieving SBP goal, Responders, n (%) ([4]; Week 8 (150 mg)): 32 (42.1) n (%)
Percent of patients achieving SBP goal, Responders, n (%) ([4]; Week 10 (300 mg)): 37 (48.7) n (%)
patients achieving SBP goal (JNC 7) ([4]; end of treatment (week 10), placebo 28%): 49%
Geometric mean albumin to creatinine ratio, Week 10 ([5]; All observed patients, n 65, baseline 12.6): 9.4 mg/g
Albumin to creatinine ratio, % Change from baseline, Mean ([5]; All observed patients): −25.3%
Geometric mean albumin to creatinine ratio, Week 10 ([5]; Baseline ratio >30 mg/g, n 12, baseline 145.4): 73.6 mg/g
Albumin to creatinine ratio, % Change from baseline, Mean ([5]; Baseline ratio >30 mg/g): −49.4%
Geometric mean albumin to creatinine ratio, Week 10 ([5]; Baseline ratio ≦30 mg/g, n 53, baseline 7.2): 5.9 mg/g
Albumin to creatinine ratio, % Change from baseline, Mean ([5]; Baseline ratio ≦30 mg/g): −18.4%
